For twelve compounds, IC50 and viability results are on record in ChEMBL document CHEMBL1152265, “The design, synthesis and biological evaluation of 7-alkoxy-4-heteroarylamino-3-cyanoquinolines as dual inhibitors of c-Src and iNOS” (Bioorg Med Chem Lett, 2008).

The target in assay [1] is T1, Nitric oxide synthase, inducible (Mus musculus, UniProt P29477).
T1 sequence (P29477 whole entry): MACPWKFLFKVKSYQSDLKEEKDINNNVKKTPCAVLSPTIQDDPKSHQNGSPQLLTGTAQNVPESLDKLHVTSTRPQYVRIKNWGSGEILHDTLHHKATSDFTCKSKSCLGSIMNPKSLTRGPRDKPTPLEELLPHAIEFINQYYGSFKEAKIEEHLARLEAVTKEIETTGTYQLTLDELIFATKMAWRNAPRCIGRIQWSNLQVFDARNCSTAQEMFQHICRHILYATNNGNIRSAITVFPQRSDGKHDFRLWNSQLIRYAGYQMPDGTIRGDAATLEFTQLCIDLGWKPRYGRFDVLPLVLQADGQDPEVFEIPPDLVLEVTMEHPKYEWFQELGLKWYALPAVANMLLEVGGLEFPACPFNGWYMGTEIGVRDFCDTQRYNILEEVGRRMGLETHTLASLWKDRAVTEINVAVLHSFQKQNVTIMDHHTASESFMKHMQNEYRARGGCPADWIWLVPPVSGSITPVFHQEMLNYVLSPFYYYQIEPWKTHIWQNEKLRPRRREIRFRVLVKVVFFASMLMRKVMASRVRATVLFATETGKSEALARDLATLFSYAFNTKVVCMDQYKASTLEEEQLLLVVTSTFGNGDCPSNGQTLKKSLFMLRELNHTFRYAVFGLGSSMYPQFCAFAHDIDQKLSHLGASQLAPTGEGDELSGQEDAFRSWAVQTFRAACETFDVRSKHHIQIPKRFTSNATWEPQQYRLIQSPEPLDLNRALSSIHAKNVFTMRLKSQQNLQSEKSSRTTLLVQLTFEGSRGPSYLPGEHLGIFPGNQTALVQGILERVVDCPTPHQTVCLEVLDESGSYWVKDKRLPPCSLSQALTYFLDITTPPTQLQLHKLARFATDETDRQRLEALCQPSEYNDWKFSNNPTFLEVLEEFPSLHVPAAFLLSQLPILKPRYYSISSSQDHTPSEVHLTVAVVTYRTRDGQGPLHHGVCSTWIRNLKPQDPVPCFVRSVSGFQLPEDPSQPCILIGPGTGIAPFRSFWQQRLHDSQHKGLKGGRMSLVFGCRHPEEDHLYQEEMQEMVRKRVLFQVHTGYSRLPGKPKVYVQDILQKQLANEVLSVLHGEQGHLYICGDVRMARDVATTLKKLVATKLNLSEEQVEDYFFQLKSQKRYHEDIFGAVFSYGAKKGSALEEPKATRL
In words: Inhibition of iNOS in mouse ANA1 cells. It counts as cell-based.

In assay [2] the target is Proto-oncogene tyrosine-protein kinase Src (Homo sapiens, UniProt P12931). In words: Inhibition of cSrc.
The next assay deals with A549. In words: Antiproliferative activity against human A549 cells assessed as survival at 10 uM by sulforhodamine B assay. The class given is functional. Particulars: read-out: Activity.
In another assay the test system is AGS. In words: Antiproliferative activity against human AGS cells assessed as survival at 10 uM by sulforhodamine B assay. It counts as functional. Conditions: read-out: Activity. (The SRB assay estimates cell density from bound dye.)
For a further assay, the system named is HepG2. Put plainly: Antiproliferative activity against human HepG2 cells assessed as survival at 10 uM by sulforhodamine B assay. It counts as functional. Particulars: read-out: Activity.
The test system of another assay is HT-29. In words: Antiproliferative activity against human HT-29 cells assessed as survival at 10 uM by sulforhodamine B assay. Particulars: read-out: Activity. It counts as functional.
Another assay relates to PC-3. In words: Antiproliferative activity against human PC3 cells assessed as survival at 10 uM by sulforhodamine B assay. The class given is functional. Conditions: read-out: Activity.

Chain of Proto-oncogene tyrosine-protein kinase Src (P12931 2-536 limits assumed): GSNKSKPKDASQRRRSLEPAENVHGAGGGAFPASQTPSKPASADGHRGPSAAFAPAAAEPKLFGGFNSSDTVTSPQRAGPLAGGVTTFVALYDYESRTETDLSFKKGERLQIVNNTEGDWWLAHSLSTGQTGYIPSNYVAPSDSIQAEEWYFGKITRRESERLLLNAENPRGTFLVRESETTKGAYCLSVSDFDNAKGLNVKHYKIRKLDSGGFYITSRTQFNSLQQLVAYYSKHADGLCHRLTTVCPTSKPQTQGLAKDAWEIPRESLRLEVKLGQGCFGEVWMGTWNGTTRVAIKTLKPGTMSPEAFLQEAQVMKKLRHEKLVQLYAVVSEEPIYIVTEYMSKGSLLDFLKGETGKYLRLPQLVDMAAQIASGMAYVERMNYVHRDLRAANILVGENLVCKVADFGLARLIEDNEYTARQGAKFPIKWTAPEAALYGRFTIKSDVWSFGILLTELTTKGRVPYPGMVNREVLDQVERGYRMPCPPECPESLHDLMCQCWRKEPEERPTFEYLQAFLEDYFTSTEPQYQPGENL

`Cc1cc2c(Nc3ccc4nc(N)sc4c3)c(C#N)cnc2cc1OCCCN1CC(C)NC(C)C1` (configuration not stated): the figures for the half-inhibitory concentration (IC50) in assay [1] and in assay [2] were 89.1 µM and 0.0366 µM, respectively.
As for `Cc1cc2c(Nc3ccc4nc(N)sc4c3)c(C#N)cnc2cc1OCCCN1CC(C)CC(C)C1` (configuration not stated), the viability at 10 µM came out at 53.6% in the assay with A549; 65.5% in the assay with AGS; 42.2% with HepG2; 60.6% in the assay with HT-29; 63% in the assay on PC-3. Moreover, the IC50 in assay [1] is 10.5 µM; in assay [2], 0.267 µM.
Consider `Cc1cc2c(Nc3ccc4nc(N)sc4c3)c(C#N)cnc2cc1OCCCN1CCC(C)CC1`, for which the values for the IC50 in assay [1] and in assay [2] were 12.7 µM and 0.0534 µM, respectively.
The like results for `Cc1cc2c(Nc3ccc4nc(N)[nH]c4c3)c(C#N)cnc2cc1OCCCN(C)C` were, in that order, 13.2 µM and 0.143 µM.
The like results for `Cc1cc2c(Nc3ccc4nc(N)[nH]c4c3)c(C#N)cnc2cc1OCCCN1CCCC1` were, in that order, 24.8 µM and 0.159 µM.
Turning to `COc1cc2c(Nc3ccc4nc(N)sc4c3)c(C#N)cnc2cc1OCCCN1CCNCC1`, the IC50 is 105 µM in assay [1] and 0.0207 µM in assay [2].
`Cc1cc2c(Nc3ccc4nc(N)sc4c3)c(C#N)cnc2cc1OCCN1CCCCC1`: the viability at 10 µM in the assay on A549 turned out to be 55.4%; with AGS, 61%; with HepG2, 55.4%; with HT-29, 42.7%; in the assay on PC-3, 77.7%. In addition, the IC50 in assay [1] is 26.7 µM; in assay [2], 0.0348 µM.
Regarding `Cc1cc2c(Nc3ccc4nc(N)sc4c3)c(C#N)cnc2cc1OCCCN1CCN(C)CC1`, the viability at 10 µM came out at 64.1% in the assay on A549; 68.1% with AGS; 40.5% in the assay with HepG2; 31.6% with HT-29; 59.5% in the assay on PC-3. In addition, the IC50 turned out to be 37.1 µM in assay [1] and 0.0506 µM in assay [2].
`Cc1cc2c(Nc3ccc4nc(N)sc4c3)c(C#N)cnc2cc1OCCCN1CCOCC1`: the IC50 is 31.8 µM in assay [1] and 0.0811 µM in assay [2].
`Cc1cc2c(Nc3ccc4nc(N)sc4c3)c(C#N)cnc2cc1OCCCN1CCNCC1`: the IC50 is 17.3 µM in assay [1] and 0.129 µM in assay [2].
The corresponding values for `CCN(CC)CCCOc1cc2ncc(C#N)c(Nc3ccc4nc(N)sc4c3)c2cc1C` are 46.8 µM and 0.042 µM.
Consider `COc1cc(Nc2c(C#N)cnc3cc(OCCCN4CCN(C)CC4)c(OC)cc23)c(Cl)cc1Cl` [BOSUTINIB], for which the viability at 10 µM in the assay on A549 is 9.32%; in the assay on AGS, 3.8%; in the assay on HepG2 it was 9.2%; in the assay with HT-29 it was 2.84%; in the assay with PC-3, 7.81%.

Broadly, the IC50 is the midpoint of a concentration-inhibition curve. Low values mean greater potency in that assay, high ones weaker potency in that assay.
